# Entries after “also recorded” stand apart in the source; their conditions may differ. Square brackets hold non-standard residues; d marks the D form. Peptide text beside a SMILES is read from it. Cya = N[CH](CS(=O)(=O)O)C(=O)O
# Assays:
# Assay type in all cases: in vivo
# Rabbits = test system: Rabbits
# Experimental: In this example, the PVD-Inducing Effects of RGD Peptides and Glycyl-Arginyl-Glycyl-Cysteic-Threonyl-Proline-COOH (RG Cysteic Acid Peptide; GRG Cysteic Acid TP; Compound 1) (SEQ ID NO: 2) were compared in rabbits. The protocol for this study was as follows:
# Animal Model • a) 20 Male and Female Rabbits • b) Weighing approximately 1.5-2.5 kg. • c) Divide into 2 groups
# i) 10 Rabbits were injected intravitreally with 2.5% RGD solution at pH=6.5 • a) 10 Right Eye injected with 2.5% RGD solution • b) 5 Left Eye used as BSS Control • c) 5 Left Eyes injected with 2.5% RGD+0.02% EDTA at pH=6.5
# ii) 10 Rabbits were injected intravitreally with 2.5% RGCysteic solution at pH=6.5 • a) 10 Right Eye injected with 2.5% RGCysteic solution at pH=6.5 • b) 10 Left Eye injected with 2.5% RGCysteic solution+0.02% EDTA at pH=6.5
# Active Chemicals • d) Sodium EDTA—99.0-100.5% from Spectrum Chemical Corp. • e) RG Cysteic Acid—cGMP supplier (Purity>98%). • f) RGD—cGMP supplier (Purity>98%). • g) BSS solution
# Both the RG Cysteic Acid, RGD, RG Cysteic Acid+Sodium EDTA, RGD+Sodium EDTA, and the BSS solutions were injected into the vitreous cavity 24 hours prior to surgery. The rabbits ([…]) were anesthetized with an intramuscular injection of 2.0 ml of 1:1 combination of xylazine (100 mg/ml) and Ketamine hydrochloride (100 mg/ml). Pupils are dilated with topical cyclopentolate hydrochloride 1% and Phenylephrine hydrochloride 10%.
# All animals were initially examined with slit lamp biomicroscopy and indirect ophthalmoscopy to exclude any animals with pre-existing vitreoretinal abnormalities. The intravitreal injection of 0.10 cc was administered 2 mm posterior to the limbus in the supranasal quadrant using a 30-gauge needle attached to a 1.0 cc syringe. Care must be taken to avoid damage to the lens or retina.
# Twenty four hours following injection and immediately before initiation of a mechanical vitrectomy, a B-scan ultrasonography was performed to determine the status of the posterior vitreous and also the liquefaction of the vitreous. A two-port pars plana vitrectomy was performed using an infusion fiberoptic and a vitreous cutter attached to a vitrectomy unit. Following a 30 second core vitrectomy, the vitreous cutter was directed to the peripapillary retinal surface where, using low aspiration (<30 mmHg) a separation of the posterior cortical vitreous from the retinal surface was attempted in 4 quadrants. The sclerotomies were sutured and a postoperative B-Scan ultrasonography was carried out to determine the presence and extent of any PVD present in each quadrant. The animals were euthanized with intracardiac sodium pentobarbital injections, and the eyes were immediately enucleated.
# ; • Grade 0. a) No detachment of the posterior Vitreous is observed. • b) Vitreous Liquefaction • Grade 1. a) Consists of eyes in which the vitreous is detached in 2 or less quadrants. • b) Vitreous Liquefaction • Grade 2. a) Consists of eyes in which the vitreous is detached in 3 or more quadrants, but with remaining focal attachments along the medullary rays • b) Vitreous Liquefaction • Grade 3. a) Consists of eyes in which the vitreous is totally detached from the retinal surface • b) Vitreous Liquefaction
# Care was taken to avoid damage to the adjacent retina and lens. The eyes were immersed in 2% paraformaldehyde plus 2.5% glutaraldehyde for a minimum of 24 hours at 4 degrees Celsius. A unique posterior calotte was removed, dehydrated in methanol, and dried in carbon dioxide to the critical point, sputter-coated in gold and photographed using the scanning electron microscope.
# [1] = test system: ischemic retinopathy mouse model; test: ROP / ischemic retinopathy mouse model, pre-retinal neovascularization
# Experimental: In this Example, Compound 1 was tested in an ischemic retinopathy mouse model to explore the feasibility of suppressing pre-retinal neovascularization.
# Mice that had ischemic retinopathy were injected intravitreously with a single dose of Compound 1 at the concentration of 0.125 μg/1 μL, 12.5 μg/1 μL, 25.0 μg/1 μL and at 50.0 μg/1 μL (Groups B, D, F and H, respectively), as well as a vehicle (BSS) (Controls 1, 2, 3 and 4) on post-natal day 12. On post-natal day 17, 5 days after intravitreal injection, the area of neovascularization was measured by image analysis. FIG. 9 is a bar graph comparing the measured area of neovascularization in mice treated with these varying doces of compound 1 or control (vehicle only).
# New Zealand Rabbits = test: Ocular toxicity of subconjunctival Compound 1 (Table C); settings: single subconjunctival 5.0 mg/100 μL, 48 hour follow up
# [2] = test system: Pigmented New Zealand Rabbits; test: Ocular toxicity dose escalation, multiple intravitreal injections of Compound 1 (Table E); settings: up to 3 intravitreal injections of 2.5, 5.0 or 10.0 mg/100 μL
# rho/VEGF mice = test: Subretinal neovascularization in transgenic rho/VEGF mice expressing human VEGF; settings: 25 μg, single intraocular injection, seven days post-dose, 3 animals
# Experimental: Transgenic mice in which the rhodopsin promoter drives expression of human VEGF in photoreceptors (rho/VEGF mice) were randomized into separate treatment groups and studies were performed to provide the following comparisons:
# Pretreatment measurements of the area of subretinal neovascularization were made on each animal using image analysis by a masked observer. Each animal received its designated treatment in a single intraocular injection. Seven days post-dose, measurements of the area of subretinal neovascularization were again made and compared to the pre-dose measurements to determine the change in subretinal neovascularization area. Also, the animals were sacrificed and the retinas were dissected, immunostained with GSA lectin and examined by fluorescence microscopy.
# [3] = Table B, single intravitreal 2.5 mg/100 μL, 24 hour follow up
# [4] = Table B, single intravitreal 2.5 mg/100 μL, 24 hour follow up, share of eyes
compound,measurement,setting,value
"CC(O)C(NC(=O)C(CS(=O)(=O)O)NC(=O)CNC(=O)C(CCCNC(=N)N)NC(=O)CN)C(=O)N1CCCC1C(=O)O (stereo not shown) [Compound 1, Glycinyl-Arginyl-Glycinyl-Cysteic-Threonyl-Proline-COOH] (H-GRG[Cya]TP-OH; configuration not given here)",PVD grade (postoperative B-scan),"Rabbits; 2.5% intravitreal 0.10 cc, OD treated eye, 24 hours after injection, one value per animal, listed as RG Cysteic Acid","Grade 3 -; also recorded: Grade 2 - (Consists of eyes in which the vitreous is detached in 3 or more quadrants, but with remaining focal attachments along the medullary rays); also recorded: Grade 1 - (Consists of eyes in which the vitreous is detached in 2 or less quadrants.)"
same,liquefaction of the vitreous,"Rabbits; 2.5% intravitreally, 24 hours",completely liquefied
same,separation of the vitreous from the retina,"Rabbits; 2.5% intravitreally, in 24 hours",complete separation of the vitreous from the retina
same,Ocular toxicity: RPE toxicity,Rabbits; [3],No RPE toxicity
same,Ocular toxicity: cataract formation,Rabbits; [3],No cataract formation
same,Ocular toxicity: exudates,Rabbits; [3],No exudates
same,Ocular toxicity: inflammation,Rabbits; [3],No inflammation
same,Ocular toxicity: retinal hemorrhage,Rabbits; [3],No retinal hemorrhage
same,"Ocular toxicity: retinal tears, breaks or detachments",Rabbits; [3],"No retinal tears, breaks"
same,Ocular toxicity: retinal vascular compromise,Rabbits; [3],No retinal vascular
same,Complete Liquefaction,Rabbits; [4],PVD - 80% Complete
same,Total PVD,Rabbits; [4],Group 1: - 60% Total
same,"activity in inducing complete PVD and liquefying the vitreous, compared with RGD","Rabbits; rabbits, 2.5% intravitreal",equal or slightly better than that of RGD
same,activity when administered with 0.02% Sodium Edetate,"Rabbits; rabbits, 2.5% intravitreal",not altered
same,adverse effects from the intravitreal injection,"Rabbits; rabbits, 2.5% intravitreal",no adverse effects or adverse safety effects
same,size of neovascularization lesions,"[1]; Group B, single intravitreal 0.125 μg/1 μL on post-natal day 12, measured day 17",somewhat smaller
same,size of neovascularization lesions,"[1]; Group D, single intravitreal 12.5 μg/1 μL on post-natal day 12, measured day 17, statistically significant vs control",greatly decreased
same,size of neovascularization lesions,"[1]; Group F, single intravitreal 25.0 μg/1 μL on post-natal day 12, measured day 17, statistically significant vs control",greatly decreased
same,size of neovascularization lesions,"[1]; Group H, single intravitreal 50.0 μg/1 μL on post-natal day 12, measured day 17, statistically significant vs control",greatly decreased
same,Ocular toxicity: RPE toxicity,New Zealand Rabbits,No RPE toxicity
same,Ocular toxicity: cataract formation,New Zealand Rabbits,No cataract
same,Ocular toxicity: exudates,New Zealand Rabbits,No exudates
same,Ocular toxicity: inflammation,New Zealand Rabbits,No inflammation
same,Ocular toxicity: retinal hemorrhage,New Zealand Rabbits,No retinal
same,"Ocular toxicity: retinal tears, breaks or detachments",New Zealand Rabbits,"No retinal tears,"
same,Ocular toxicity: retinal vascular compromise,New Zealand Rabbits,No retinal vascular
same,Total PVD,New Zealand Rabbits; 3 eyes,0% Total PVD
same,Vitreous liquefaction,New Zealand Rabbits; 3 eyes,No liquefaction
same,"Tonometry, average for treated eyes",[2],12.7 mmHg average
same,Ocular toxicity: RPE toxicity,"[2]; sacrifice Day 7, 37 or 90",No RPE toxicity
same,Ocular toxicity: cataract formation,"[2]; sacrifice Day 7, 37 or 90",No cataract
same,Ocular toxicity: exudates,"[2]; sacrifice Day 7, 37 or 90",No exudates
same,Ocular toxicity: inflammation,"[2]; sacrifice Day 7, 37 or 90",No inflammation
same,Ocular toxicity: retinal hemorrhage,"[2]; sacrifice Day 7, 37 or 90",No retinal
same,"Ocular toxicity: retinal tears, breaks or detachments","[2]; sacrifice Day 7, 37 or 90","No retinal tears,"
same,Ocular toxicity: retinal vascular compromise,"[2]; sacrifice Day 7, 37 or 90",No retinal vascular
same,greater reduction in subretinal neovascularization area than control animals (Phosphate Buffered Saline),rho/VEGF mice,37.06%

# From patent US10590166B2, “Peptides useable for treating cancer” (Allegro Pharmaceuticals, LLC, priority 2009, dated 2020)
